Measured values from ChEMBL document CHEMBL5316381, “Discovery of [1,2,3]Triazolo[4,5-c]quinoline Derivatives as a New Class of Ataxia-Telangiectasia Mutated Kinase Inhibitors” (ACS Med Chem Lett, 2023).
Calls of active or inactive are those of the source. No cut-off for these calls is given here.

Key:
[1] = system: SW-620; experiment: Induction of apoptosis in human SW620 cells assessed as necrotic cells at 100 nM measured after 72 hrs in presence of CPT-11 by Annexin V-FITC staining based flow cytometric analysis (reference value: 5.83%); type: functional
[2] = molecular target: T1, Serine/threonine-protein kinase Chk1 (Homo sapiens) (UniProt O14757); experiment: Inhibition of CPT-11 induced Chk1 phosphorylation in human SW620 cells by SDS-PAGE based Westernblot analysis; type: cell-based
T1 sequence (whole entry): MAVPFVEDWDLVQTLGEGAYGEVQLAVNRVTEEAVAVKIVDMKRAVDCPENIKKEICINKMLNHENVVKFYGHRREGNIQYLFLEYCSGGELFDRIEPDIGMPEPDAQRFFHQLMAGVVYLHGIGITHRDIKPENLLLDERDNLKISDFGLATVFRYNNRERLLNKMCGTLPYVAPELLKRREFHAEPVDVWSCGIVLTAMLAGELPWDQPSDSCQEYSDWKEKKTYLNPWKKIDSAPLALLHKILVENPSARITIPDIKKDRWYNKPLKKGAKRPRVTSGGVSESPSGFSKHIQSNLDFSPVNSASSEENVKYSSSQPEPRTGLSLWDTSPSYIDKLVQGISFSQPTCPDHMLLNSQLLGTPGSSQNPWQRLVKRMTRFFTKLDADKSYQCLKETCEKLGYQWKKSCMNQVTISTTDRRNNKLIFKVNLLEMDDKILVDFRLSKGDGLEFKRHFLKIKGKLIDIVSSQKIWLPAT

[3] = system: SW-620; experiment: Induction of apoptosis in human SW620 cells assessed as viable cells at 100 nM measured after 72 hrs by Annexin V-FITC staining based flow cytometric analysis (reference value: 87.36%); type: functional; settings: read-out: Activity
[4] = molecular target: T2, Serine-protein kinase ATM (Homo sapiens, UniProt Q13315); experiment: Inhibition of ATM phosphorylation in human SW620 cells with IR-induced DNA damage in the presence of 1.5 Gy irradiation by Western blot analysis; type: cell-based; settings: dose 3-250 nM
T2 sequence (Q13315 whole entry): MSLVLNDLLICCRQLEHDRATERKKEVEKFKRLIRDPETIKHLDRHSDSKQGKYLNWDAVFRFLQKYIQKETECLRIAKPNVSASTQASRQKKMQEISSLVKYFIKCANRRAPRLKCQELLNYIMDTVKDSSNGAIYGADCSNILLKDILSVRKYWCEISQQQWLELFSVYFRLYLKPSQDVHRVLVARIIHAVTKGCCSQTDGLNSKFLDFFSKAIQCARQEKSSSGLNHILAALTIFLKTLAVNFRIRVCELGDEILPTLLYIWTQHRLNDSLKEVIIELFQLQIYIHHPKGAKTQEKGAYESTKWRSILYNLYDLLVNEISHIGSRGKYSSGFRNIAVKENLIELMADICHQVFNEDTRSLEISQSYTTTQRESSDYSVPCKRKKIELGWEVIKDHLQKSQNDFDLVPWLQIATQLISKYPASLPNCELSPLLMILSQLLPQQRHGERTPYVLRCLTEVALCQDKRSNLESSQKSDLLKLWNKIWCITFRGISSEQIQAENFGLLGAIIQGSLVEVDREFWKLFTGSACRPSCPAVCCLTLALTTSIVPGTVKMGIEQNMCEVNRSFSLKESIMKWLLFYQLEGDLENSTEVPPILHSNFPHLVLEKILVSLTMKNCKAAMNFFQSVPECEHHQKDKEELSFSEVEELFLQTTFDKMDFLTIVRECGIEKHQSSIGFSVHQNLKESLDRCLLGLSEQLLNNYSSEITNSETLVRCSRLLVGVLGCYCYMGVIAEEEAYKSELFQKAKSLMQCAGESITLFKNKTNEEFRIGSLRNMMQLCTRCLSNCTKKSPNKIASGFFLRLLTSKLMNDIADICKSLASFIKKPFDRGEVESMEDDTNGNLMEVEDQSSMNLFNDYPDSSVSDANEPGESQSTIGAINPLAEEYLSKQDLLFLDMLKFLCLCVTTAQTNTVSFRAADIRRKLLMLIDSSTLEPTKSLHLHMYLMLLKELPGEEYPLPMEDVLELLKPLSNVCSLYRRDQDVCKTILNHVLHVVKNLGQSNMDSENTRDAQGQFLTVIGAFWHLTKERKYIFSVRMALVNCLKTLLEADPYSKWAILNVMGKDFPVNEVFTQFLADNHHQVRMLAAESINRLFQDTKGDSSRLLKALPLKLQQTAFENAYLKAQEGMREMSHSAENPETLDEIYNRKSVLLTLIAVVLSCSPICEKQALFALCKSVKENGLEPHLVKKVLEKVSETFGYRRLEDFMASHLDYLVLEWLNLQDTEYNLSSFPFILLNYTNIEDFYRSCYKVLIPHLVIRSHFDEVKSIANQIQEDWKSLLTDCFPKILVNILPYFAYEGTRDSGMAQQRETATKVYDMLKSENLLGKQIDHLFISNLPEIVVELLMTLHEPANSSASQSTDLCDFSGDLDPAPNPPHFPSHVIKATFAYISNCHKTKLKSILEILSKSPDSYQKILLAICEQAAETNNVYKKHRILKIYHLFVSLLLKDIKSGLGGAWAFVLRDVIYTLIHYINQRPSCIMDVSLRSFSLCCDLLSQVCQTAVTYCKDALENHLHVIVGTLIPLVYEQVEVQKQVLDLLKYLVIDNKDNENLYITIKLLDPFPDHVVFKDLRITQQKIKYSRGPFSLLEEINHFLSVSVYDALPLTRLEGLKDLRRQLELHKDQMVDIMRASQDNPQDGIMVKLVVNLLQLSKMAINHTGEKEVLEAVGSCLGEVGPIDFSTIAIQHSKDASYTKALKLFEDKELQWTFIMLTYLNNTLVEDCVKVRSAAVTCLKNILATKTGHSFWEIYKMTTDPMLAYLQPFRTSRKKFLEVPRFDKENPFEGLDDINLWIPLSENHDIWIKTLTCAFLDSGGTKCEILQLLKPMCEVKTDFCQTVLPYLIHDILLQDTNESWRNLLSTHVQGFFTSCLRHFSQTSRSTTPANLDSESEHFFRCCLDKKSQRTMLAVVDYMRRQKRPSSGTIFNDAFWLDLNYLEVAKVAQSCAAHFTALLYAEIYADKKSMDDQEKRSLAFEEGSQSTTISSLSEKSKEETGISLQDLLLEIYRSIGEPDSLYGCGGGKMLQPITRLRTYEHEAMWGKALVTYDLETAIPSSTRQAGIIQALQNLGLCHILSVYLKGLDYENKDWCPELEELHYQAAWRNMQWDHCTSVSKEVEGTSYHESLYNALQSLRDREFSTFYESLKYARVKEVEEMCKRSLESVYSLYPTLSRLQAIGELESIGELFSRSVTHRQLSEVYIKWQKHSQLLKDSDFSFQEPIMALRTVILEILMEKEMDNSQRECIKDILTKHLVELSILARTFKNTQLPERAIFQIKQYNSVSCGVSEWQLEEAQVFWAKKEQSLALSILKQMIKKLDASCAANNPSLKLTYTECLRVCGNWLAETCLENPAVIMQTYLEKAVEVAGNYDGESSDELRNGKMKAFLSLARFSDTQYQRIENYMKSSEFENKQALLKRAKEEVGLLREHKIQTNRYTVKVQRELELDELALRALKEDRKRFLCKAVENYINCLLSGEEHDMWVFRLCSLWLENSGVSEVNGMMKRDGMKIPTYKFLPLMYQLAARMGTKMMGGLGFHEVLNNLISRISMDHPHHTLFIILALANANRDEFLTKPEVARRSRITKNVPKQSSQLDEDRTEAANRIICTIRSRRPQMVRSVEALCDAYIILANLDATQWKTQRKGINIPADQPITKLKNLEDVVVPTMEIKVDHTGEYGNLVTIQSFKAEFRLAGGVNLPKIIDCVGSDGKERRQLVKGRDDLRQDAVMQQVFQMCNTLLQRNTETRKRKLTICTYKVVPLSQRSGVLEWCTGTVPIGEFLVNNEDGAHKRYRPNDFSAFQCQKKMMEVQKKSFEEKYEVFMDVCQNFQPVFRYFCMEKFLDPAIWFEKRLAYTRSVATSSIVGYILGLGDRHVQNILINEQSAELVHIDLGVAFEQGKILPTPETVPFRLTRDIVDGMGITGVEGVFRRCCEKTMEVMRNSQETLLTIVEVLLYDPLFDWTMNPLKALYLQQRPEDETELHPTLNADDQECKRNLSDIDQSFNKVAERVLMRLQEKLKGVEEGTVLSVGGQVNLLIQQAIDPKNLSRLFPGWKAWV

[5] = system: HCT-116; experiment: Induction of apoptosis in human HCT-116 cells assessed as viable cells at 100 nM measured after 72 hrs by Annexin V-FITC staining based flow cytometric analysis (reference value: 73.74%); type: functional; settings: read-out: Activity
[6] = molecular target: T2, Serine-protein kinase ATM; experiment: Inhibition of ATM in human SW620 cells assessed as increase in gamma H2AX foci accumulation at 50 to 250 nM incubated for 24 hrs in the presence of CPT-11 by confocal microscopic analysis; type: cell-based; settings: dose 50-250 nM
[7] = system: SW-620; experiment: Antiproliferative activity against human SW620 cells assessed as reduction in colony formation at 27 nM measured after 14 days by crystal violet staining based microscopic analysis; type: functional, cell-based; settings: time 14.0 day
[8] = system: SW-620; experiment: Radiosensitizing activity against human SW620 cells assessed as reduction in colony formation at 9 nM incubated after 14 days in the presence of 1.5 Gy irradiation by crystal violet staining based analysis; type: functional, cell-based; settings: time 14.0 day
[9] = system: HCT-116; experiment: Induction of apoptosis in human HCT-116 cells assessed as necrotic cells at 100 nM measured after 72 hrs in presence of CPT-11 by Annexin V-FITC staining based flow cytometric analysis (reference value: 2.41%); type: functional
[10] = system: HCT-116; experiment: Induction of apoptosis in human HCT-116 cells assessed as early apoptotic cells at 100 nM measured after 72 hrs in presence of CPT-11 by Annexin V-FITC staining based flow cytometric analysis (reference value: 4.06%); type: functional
[11] = molecular target: DNA-dependent protein kinase catalytic subunit (Homo sapiens, UniProt P78527); experiment: Inhibition of DNA-PK (unknown origin) using GST-cMyc-p53 as substrate incubated for 30 mins in the presence of Mg/ATP mix by HTRF-based analysis

- inhibition [2]: inactive
- inhibition [6]: Active
- IC50 [11]: 123 nM
SMILES: C[C@H](c1ccccc1)n1nnc2cnc3ccc(-c4ccc(OCCCN(C)C)nc4)cc3c21
- Activity [1]: 1.63%
- viability at 0.1 µM [3]: 80.2%
- inhibition [4]: Dose-Dependent Effect
- viability at 0.1 µM [5]: 75.3%
- Activity [7]: inactive
- Activity [8]: Active
- Activity [9]: 7.04%
- Activity [10]: 2.77%
